43 compounds from patent US11524958B2, “Tricyclic compound as CRTH2 inhibitor” (CHIA TAI TIANQING PHARMACEUTICAL GROUP CO., LTD., priority 2016, dated 2022) can be followed below.

The target in this test is T1, CRTH2 receptor (Homo sapiens, UniProt Q9Y5Y4).
T1 construct: host or cells: CHO-K1 (PathHunter β-arrestin line)
T1 sequence (Q9Y5Y4 1-395): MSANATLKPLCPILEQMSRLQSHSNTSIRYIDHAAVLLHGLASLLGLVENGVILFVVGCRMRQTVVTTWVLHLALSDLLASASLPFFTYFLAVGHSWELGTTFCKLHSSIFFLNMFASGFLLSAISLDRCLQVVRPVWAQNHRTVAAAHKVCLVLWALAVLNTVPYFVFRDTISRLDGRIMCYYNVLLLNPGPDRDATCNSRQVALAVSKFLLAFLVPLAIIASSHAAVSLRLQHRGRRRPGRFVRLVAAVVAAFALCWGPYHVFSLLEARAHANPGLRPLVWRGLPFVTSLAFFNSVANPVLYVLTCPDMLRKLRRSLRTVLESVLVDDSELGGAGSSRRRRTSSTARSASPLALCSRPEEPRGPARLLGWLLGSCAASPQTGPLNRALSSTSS
Briefly: PathHunter CHO-K1 CRTH2 β-arrestin assay (DiscoverX), antagonism of PGD2. Format: cell-based. As to conditions: PathHunter CHO-K1 CRTH2 β-arrestin cells; compound 30 min, then EC80 agonist (PGD2) 90 min, 37° C.; chemiluminescent signal. Here is the method:
DiscoverX Corporation in the U.S was entrusted to complete this experiment by β-arrestin assay. The experimental method and results were listed below: PathHunter® CHO-K1 CRTH2 β-arrestin cells (DiscoverX, catalogue number 93-0291C2) grew under standard conditions, and were inoculated into a white-wall 384-well microplate at a density of 5,000 cells/well. 20 μL of Cell Plating Reagent 1 was used in each well. Before the test, the cells were incubated overnight at 37° C./5% CO2. A test compound was serially diluted in DMSO with a dilution factor of 3-fold to give 8 concentrations of the test compound. Shortly before the test, the serially diluted test compound was further diluted with the test buffer to 5 times of the test concentration. 5 μL of the further diluted test compound was added to the cells, and the cells were incubated for 30 min at 37° C. The concentration of the solvent was 1%. 5 μL of 6× EC80 agonist (PGD2) buffer was added to the cells, and the cells were incubated for 90 min at 37° C. Measured signals were generated by one-time addition of 15 μL (50% v/v) of PathHunter detection mixture reagent and subsequent one-hour incubation. The microplate was read through the chemiluminescent signals of PerkinElmer Envision™ reader. Biological activity of the test compound was analyzed by CBIS data analysis suite (ChemInnovation, CA), and was denoted as IC50 value.
For orientation: IC50 means the concentration needed to halve the response being measured. High values mean a need for much substance, low ones inhibition by little substance. In turn, `CS(=O)(=O)c1ccc(Cc2c3n(c4ccc(Cl)cc24)CC(C(=O)O)CC3)c(C(F)(F)F)c1` (single isomer, unassigned) [Example 22 peak1] returned a concentration for half-maximal inhibition (IC50) below 100 nM.

The compound `O=C(O)C1CCc2c(Cc3ccc4c(c3)C(F)C(F)(F)S4(=O)=O)c3cc(F)ccc3n2C1` (stereo not shown) [Example 33] came in with an IC50 above 1000 nM.

For the compound `CS(=O)(=O)c1ccc(Cc2c3n(c4ccc(F)cc24)CC(C(=O)O)CC3)c(C(F)(F)F)c1` (single isomer, unassigned) [Example 25 peak2], the IC50 is below 100 nM.

`CS(=O)(=O)c1ccc(Cc2c3n(c4ccccc24)CC(C(=O)O)CC3)c(C(F)(F)F)c1` (single isomer, unassigned) [Example 16 peak2] registered an IC50 below 100 nM.

`CS(=O)(=O)c1ccc(Cc2c3n(c4ccc(Cl)cc24)CC(C(=O)O)CC3)c(C(F)(F)F)c1` (single isomer, unassigned) [Example 22 peak2]: the IC50 is above 1000 nM.

`O=C(O)C1CCc2c(Cc3ccc4c(c3)CCS4(=O)=O)c3cc(Cl)ccc3n2C1` (stereo not shown) [Example 24] yielded an IC50 above 1000 nM.

Compound `O=C(O)C1CCc2c(Cc3cc4c(cc3C(F)(F)F)S(=O)(=O)CC4)c3cc(Cl)ccc3n2C1` (stereo not shown) [Example 37] registered an IC50 above 1000 nM.

`CS(=O)(=O)c1ccc(Cc2c3n(c4ccc(Cl)cc24)CC(C(=O)O)CC3)c(C(F)(F)F)c1` (stereo not shown) [Example 22]: the IC50 is below 100 nM.

`CS(=O)(=O)c1ccc(Cc2c3n(c4ccccc24)C(CC(=O)O)CCC3)cc1` (stereo not shown) [Example 7] came in with an IC50 above 1000 nM.

In turn, `O=C(O)C1CCc2c(Cc3ccc4c(c3)C(F)(F)CCS4(=O)=O)c3cc(F)ccc3n2C1` (stereo not shown) [Example 43] had an IC50 above 1000 nM.

The compound `CS(=O)(=O)c1ccc(Cc2c3n(c4ccccc24)CC(C(=O)O)CC3)c(C(F)(F)F)c1` (single isomer, unassigned) [Example 16 peak1] yielded an IC50 above 1000 nM.

The compound `CS(=O)(=O)c1ccc(Cc2c3n(c4ccccc24)CC(C(=O)O)CC3)nc1` (stereo not shown) [Example 39] had an IC50 above 1000 nM.

Compound `CS(=O)(=O)c1ccc(Cc2c3n(c4ccccc24)CC(CC(=O)O)CC3)c(C(F)(F)F)c1` (stereo not shown) [Example 15] returned an IC50 above 1000 nM.

`CS(=O)(=O)c1ccc(Cc2c3n(c4ccccc24)CC(C(=O)O)CC3)cn1` (stereo not shown) [Example 41] gave an IC50 above 1000 nM.

`CS(=O)(=O)c1ccc(Cc2c3ccccc3n3cc(C(=O)O)ncc23)cn1` [Example 30] showed an IC50 above 1000 nM.

For the compound `O=C(O)CC1CCc2c(Cc3ccc4ccccc4n3)c3ccccc3n2C1` (stereo not shown) [Example 10], the IC50 is above 1000 nM.

As for `COc1cc(C(F)(F)F)c(Cc2c3n(c4ccccc24)CC(C(=O)O)CC3)cn1` (stereo not shown) [Example 40], the IC50 is above 1000 nM.

Regarding `O=C(O)C1CCc2c(Cc3ccc4c(c3)CCS4(=O)=O)c3cc(F)ccc3n2C1` (stereo not shown) [Example 28], the IC50 is above 1000 nM.

`O=C(O)C1CCCc2c(Cc3cccnc3S(=O)(=O)c3ccccc3)c3ccccc3n21` (stereo not shown) [Example 2] showed an IC50 of 100 to 1000 nM.

In turn, `CS(=O)(=O)c1ccc(Cc2c3n(c4ccccc24)CC(C(=O)O)C3)c(C(F)(F)F)c1` (stereo not shown) [Example 32] gave an IC50 of 100 to 1000 nM.

For the compound `CS(=O)(=O)c1ccc(Cc2c3n(c4ccc(F)cc24)CC(C(=O)O)CC3)c(F)c1` (stereo not shown) [Example 26], the IC50 lay within 100 to 1000 nM.

`CS(=O)(=O)c1ccc(Cc2c3n(c4ccccc24)CC(CC(=O)O)CC3)cc1` (stereo not shown) [Example 9] gave an IC50 above 1000 nM.

As for `O=C(O)C1CCc2c(Cc3ccc4ccccc4n3)c3cc(F)ccc3n2C1` (stereo not shown) [Example 27], the IC50 was above 1000 nM.

Compound `CS(=O)(=O)c1ccc(Cc2c3n(c4ncccc24)CC(C(=O)O)CC3)c(C(F)(F)F)c1` (stereo not shown) [Example 42] had an IC50 above 1000 nM.

On to `CC1(C(=O)O)CCc2c(Cc3ccc(S(C)(=O)=O)cc3C(F)(F)F)c3ccccc3n2C1` (stereo not shown) [Example 18], for which the IC50 was above 1000 nM.

The compound `O=C(O)CC1CCc2c(Cc3cccnc3S(=O)(=O)c3ccccc3)c3ccccc3n2C1` (stereo not shown) [Example 11] had an IC50 above 1000 nM.

In turn, `CS(=O)(=O)c1ccc(Cc2c3ccccc3n3cc(C(=O)O)ncc23)c(C(F)(F)F)c1` [Example 31] registered an IC50 above 1000 nM.

`CS(=O)(=O)c1ccc(Cc2c3n(c4ccc(Cl)cc24)CC(C(=O)O)CC3)c(F)c1` (stereo not shown) [Example 23] displayed a half-inhibitory concentration (IC50) of 100 to 1000 nM.

`CC1(C(=O)O)CCc2c(Cc3ccc(C(F)(F)F)nc3)c3ccccc3n2C1` (stereo not shown) [Example 20]: the IC50 was above 1000 nM.

In turn, `CS(=O)(=O)c1ccc(Cc2c3n(c4ccccc24)C(C(=O)O)CCC3)c(C(F)(F)F)c1` (stereo not shown) [Example 6] came in with an IC50 of 100 to 1000 nM.

`O=C(O)C1CCc2c(Cc3cccc4c3CCS4(=O)=O)c3cc(F)ccc3n2C1` (stereo not shown) [Example 38]: the IC50 is above 1000 nM.

On to `CS(=O)(=O)c1ccc(Cc2c3n(c4ccccc24)C(CC(=O)O)CCC3)c(C(F)(F)F)c1` (stereo not shown) [Example 8], for which the half-inhibitory concentration (IC50) is above 1000 nM.

As for `O=C(O)C1CCc2c(Cc3cc4c(cc3C(F)(F)F)S(=O)(=O)CC4)c3cc(F)ccc3n2C1` (stereo not shown) [Example 36], the IC50 is above 1000 nM.

`CS(=O)(=O)c1ccc(Cc2c3ccccc3n3cc(C(=O)O)ncc23)cc1` [Example 29] came in with an IC50 above 1000 nM.

`O=C(O)C1CCc2c(Cc3cccnc3S(=O)(=O)c3ccc(Cl)cc3)c3ccccc3n2C1` (stereo not shown) [Example 17]: the IC50 is 100 to 1000 nM.

The compound `CS(=O)(=O)c1ccc(Cc2c3n(c4ccc(F)cc24)CC(C(=O)O)CC3)c(C(F)(F)F)c1` (stereo not shown) [Example 25] came in with an IC50 below 100 nM.

`CS(=O)(=O)c1ccc(Cc2c3n(c4ccccc24)CC(C(=O)O)CC3)c(C(F)(F)F)c1` (stereo not shown) [Example 16] gave an IC50 below 100 nM.

The compound `CS(=O)(=O)c1ccc(Cc2c3n(c4ccc(OC(F)F)cc24)CC(C(=O)O)CC3)c(C(F)(F)F)c1` (stereo not shown) [Example 35] showed an IC50 below 100 nM.

As to `O=C(O)C1CCc2c(Cc3ccc4c(c3)S(=O)(=O)CC4)c3cc(F)ccc3n2C1` (stereo not shown) [Example 44], the IC50 was above 1000 nM.

Take `CS(=O)(=O)c1ccc(Cc2c3n(c4ccccc24)C(C(=O)O)CCC3)cc1` (stereo not shown) [Example 1]: the IC50 was above 1000 nM.

Compound `CC1(C(=O)O)CCc2c(Cc3ccc(S(C)(=O)=O)cc3F)c3ccccc3n2C1` (stereo not shown) [Example 21] yielded an IC50 above 1000 nM.

Consider `COc1ccc2c(c1)c(Cc1ccc(S(C)(=O)=O)cc1C(F)(F)F)c1n2CC(C(=O)O)CC1` (stereo not shown) [Example 34], for which the IC50 was below 100 nM.

`CS(=O)(=O)c1ccc(Cc2c3n(c4ccc(F)cc24)CC(C(=O)O)CC3)c(C(F)(F)F)c1` (single isomer, unassigned) [Example 25 peak1] yielded an IC50 of 100 to 1000 nM.
